Results as given in ChEMBL document CHEMBL5154928, “Structure-Aided Design, Synthesis, and Biological Evaluation of Potent and Selective Non-Nucleoside Inhibitors Targeting Protein Arginine Methyltransferase 5” (J Med Chem, 2022).

Experiments:
[1] = biological target: Protein arginine N-methyltransferase 1 (Homo sapiens, UniProt Q99873); test: Inhibition of PRMT1 (unknown origin) using histone H4 (1 to 21 residues) peptide as substrate incubated for 210 mins in presence of SAM by AlphaLISA assay
[2] = Metabolic stability in human liver microsomes assessed as half life incubated for 10 mins measured up to 60 mins in presence of NADPH by LC-MS/MS analysis; assay type: ADME, Microsome
[3] = biological target: Histone-lysine N-methyltransferase EZH2 (Homo sapiens, UniProt Q15910); test: Inhibition of EZH2 (unknown origin) using peptide substrate preincubated for 10 mins followed by substrate addition for 4 hrs by HTRF assay
[4] = biological target: Histone-lysine N-methyltransferase 2A (Homo sapiens, UniProt Q03164); test: Inhibition of MLL1 (unknown origin) using peptide substrate preincubated for 10 mins followed by substrate addition for 4 hrs by HTRF assay
[5] = biological target: Histone-lysine N-methyltransferase 2B (Homo sapiens, UniProt Q9UMN6); test: Inhibition of MLL4 (unknown origin) using peptide substrate preincubated for 10 mins followed by substrate addition for 4 hrs by HTRF assay
[6] = biological target: T1, Protein arginine N-methyltransferase 5 (Homo sapiens, UniProt O14744); test: Inhibition of PRMT5 (unknown origin) using histone H4 (1 to 21 residues) peptide/SAM as substrate incubated for 210 mins in presence of SAM by AlphaLISA assay
[7] = biological target: T2, Histone-arginine methyltransferase CARM1 (Homo sapiens, UniProt Q86X55); test: Inhibition of PRMT4 (unknown origin) using histone H4 (1 to 21 residues) peptide/SAM as substrate incubated for 210 mins in presence of SAM by AlphaLISA assay
T2 sequence (Q86X55 whole entry): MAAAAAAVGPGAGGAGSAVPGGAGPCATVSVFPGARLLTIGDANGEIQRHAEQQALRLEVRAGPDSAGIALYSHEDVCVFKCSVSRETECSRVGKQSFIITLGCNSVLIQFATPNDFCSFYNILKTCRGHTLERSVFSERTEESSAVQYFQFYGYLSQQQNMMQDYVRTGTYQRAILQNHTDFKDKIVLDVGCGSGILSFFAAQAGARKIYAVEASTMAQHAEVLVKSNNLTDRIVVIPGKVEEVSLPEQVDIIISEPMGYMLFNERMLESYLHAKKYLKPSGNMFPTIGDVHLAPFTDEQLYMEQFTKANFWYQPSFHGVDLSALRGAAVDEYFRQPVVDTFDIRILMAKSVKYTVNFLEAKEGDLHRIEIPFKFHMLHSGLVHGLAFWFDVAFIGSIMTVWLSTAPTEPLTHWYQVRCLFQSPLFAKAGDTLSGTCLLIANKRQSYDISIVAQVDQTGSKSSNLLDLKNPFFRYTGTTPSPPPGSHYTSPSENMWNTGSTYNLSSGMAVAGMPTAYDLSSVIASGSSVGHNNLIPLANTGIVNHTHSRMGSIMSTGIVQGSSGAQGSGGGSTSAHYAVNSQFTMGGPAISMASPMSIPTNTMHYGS

A-375 [8] = test: Induction of apoptosis in human A-375 cells assessed as total apoptotic cells at 0.5 uM incubated for 48 hrs by Annexin-V FITC/PI staining based flow cytometry analysis relative to control; assay type: functional
A-375 [9] = test: Induction of apoptosis in human A-375 cells assessed as total apoptotic cells at 1 uM incubated for 48 hrs by Annexin-V FITC/PI staining based flow cytometry analysis relative to control; assay type: functional
A-375 [10] = test: Induction of apoptosis in human A-375 cells assessed as total apoptotic cells at 2 uM incubated for 48 hrs by Annexin-V FITC/PI staining based flow cytometry analysis relative to control; assay type: functional
A-375 [11] = test: Induction of apoptosis in human A-375 cells assessed as total apoptotic cells at 4 uM incubated for 48 hrs by Annexin-V FITC/PI staining based flow cytometry analysis relative to control; assay type: functional
[12] = Metabolic stability in rat liver microsomes assessed as half life measured up to 60 mins in presence of NADPH by LC-MS/MS analysis; assay type: ADME, Microsome
[13] = Metabolic stability in mouse liver microsomes assessed as half life measured up to 60 mins in presence of NADPH by LC-MS/MS analysis; assay type: ADME, Microsome
[14] = Metabolic stability in rat liver microsomes assessed as clearance measured up to 60 mins in presence of NADPH by LC-MS/MS analysis; assay type: ADME, Microsome; settings: 1 h
[15] = Metabolic stability in mouse liver microsomes assessed as clearance measured up to 60 mins in presence of NADPH by LC-MS/MS analysis; assay type: ADME, Microsome; settings: 1 h
[16] = Plasma protein binding in rat by LC-MS/MS analysis; assay type: ADME, cell-free; settings: read-out: PPB (converted)
[17] = Plasma protein binding in mouse by LC-MS/MS analysis; assay type: ADME, cell-free; settings: read-out: PPB (converted)
[18] = biological target: T1, Protein arginine N-methyltransferase 5; test: Displacement of [3H]-SAM from PRMT5 (unknown origin) using peptide substrate preincubated for 15 mins followed by substrate addition for 60 mins by radioactive biochemical assay
[19] = Half life in Sprague-Dawley rat at 3 mg/kg, iv measured for 0.25 to 24 hrs by LC-MS/MS analysis; assay type: ADME, organism-based; settings: in vivo, time 0.25-24 hrs
[20] = Cmax in Sprague-Dawley rat at 10 mg/kg, po measured for 0.25 to 24 hrs by LC-MS/MS analysis; assay type: ADME, organism-based; parameters: time lower 0.25 hrs, dose 10 mg/kg, time upper 24 hrs, route po; settings: in vivo
[21] = AUC (0 to infinity) in Sprague-Dawley rat at 3 mg/kg, iv measured for 0.25 to 24 hrs by LC-MS/MS analysis; assay type: ADME, organism-based; parameters: time 0.25-24 hrs, dose 3 mg/kg, route iv; settings: in vivo
[22] = AUC (0 to infinity) in Sprague-Dawley rat at 10 mg/kg, po measured for 0.25 to 24 hrs by LC-MS/MS analysis; assay type: ADME, organism-based; parameters: dose 10 mg/kg, time upper 24 hrs, time lower 0.25 hrs, route po; settings: in vivo
[23] = Clearance in Sprague-Dawley rat at 3 mg/kg, iv measured for 0.25 to 24 hrs by LC-MS/MS analysis; assay type: ADME, organism-based; settings: in vivo, time 0.25-24 hrs
[24] = Volume of distribution at steady state in Sprague-Dawley rat at 3 mg/kg, iv measured for 0.25 to 24 hrs by LC-MS/MS analysis; assay type: ADME, organism-based; settings: in vivo, time 0.25-24 hrs, read-out: Vdss
[25] = Oral bioavailability in Sprague-Dawley rat at 10 mg/kg, measured for 0.25 to 24 hrs by LC-MS/MS analysis; assay type: ADME, organism-based; settings: in vivo, time 0.25-24 hrs
A-375 [26] = test: Antitumor activity against human A-375 cells xenografted in BALB/c mouse assessed as tumor growth inhibition at 75 mg/kg, po qd for 19 days and measured every 3 days; assay type: functional; settings: A-375, 456 h, time 19 day, read-out: TGI
[27] = Toxicity in BALB/c mouse xenografted with human A375 cells assessed as change in body weight at 75 mg/kg, po qd for 19 days and measured every 3 days; assay type: organism-based, A-375; settings: in vivo, 456 h, time 19 day

T1 sequence (O14744 whole entry, the tested form may be a part): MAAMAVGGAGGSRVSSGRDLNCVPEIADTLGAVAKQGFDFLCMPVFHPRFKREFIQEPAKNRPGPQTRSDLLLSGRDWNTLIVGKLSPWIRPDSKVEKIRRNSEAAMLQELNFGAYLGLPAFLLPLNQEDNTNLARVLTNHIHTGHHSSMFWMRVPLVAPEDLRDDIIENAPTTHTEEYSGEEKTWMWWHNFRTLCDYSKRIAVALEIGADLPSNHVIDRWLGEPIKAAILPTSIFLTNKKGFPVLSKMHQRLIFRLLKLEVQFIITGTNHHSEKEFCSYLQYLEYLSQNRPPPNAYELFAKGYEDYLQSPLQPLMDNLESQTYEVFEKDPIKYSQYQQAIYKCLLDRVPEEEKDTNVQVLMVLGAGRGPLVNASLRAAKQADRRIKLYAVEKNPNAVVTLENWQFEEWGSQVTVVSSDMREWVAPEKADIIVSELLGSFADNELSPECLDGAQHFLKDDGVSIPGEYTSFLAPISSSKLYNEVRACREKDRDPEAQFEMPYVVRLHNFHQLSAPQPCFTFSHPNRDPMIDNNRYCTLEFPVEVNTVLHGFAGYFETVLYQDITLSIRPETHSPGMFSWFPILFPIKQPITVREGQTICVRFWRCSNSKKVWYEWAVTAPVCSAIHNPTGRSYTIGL
Sequence of Protein arginine N-methyltransferase 1 (Q99873 whole entry, the tested form may be a part): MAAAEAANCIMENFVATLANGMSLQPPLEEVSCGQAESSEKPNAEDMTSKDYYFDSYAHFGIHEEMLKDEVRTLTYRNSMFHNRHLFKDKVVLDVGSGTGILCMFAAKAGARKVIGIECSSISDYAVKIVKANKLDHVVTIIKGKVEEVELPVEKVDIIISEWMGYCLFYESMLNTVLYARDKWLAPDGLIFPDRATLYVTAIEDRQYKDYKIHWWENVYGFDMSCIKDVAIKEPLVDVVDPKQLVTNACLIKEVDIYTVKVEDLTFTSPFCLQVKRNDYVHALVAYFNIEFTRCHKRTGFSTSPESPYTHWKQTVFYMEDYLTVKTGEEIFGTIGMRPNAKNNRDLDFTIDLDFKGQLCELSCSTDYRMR
Sequence of Histone-lysine N-methyltransferase 2B (Q9UMN6 whole entry, the tested form may be a part): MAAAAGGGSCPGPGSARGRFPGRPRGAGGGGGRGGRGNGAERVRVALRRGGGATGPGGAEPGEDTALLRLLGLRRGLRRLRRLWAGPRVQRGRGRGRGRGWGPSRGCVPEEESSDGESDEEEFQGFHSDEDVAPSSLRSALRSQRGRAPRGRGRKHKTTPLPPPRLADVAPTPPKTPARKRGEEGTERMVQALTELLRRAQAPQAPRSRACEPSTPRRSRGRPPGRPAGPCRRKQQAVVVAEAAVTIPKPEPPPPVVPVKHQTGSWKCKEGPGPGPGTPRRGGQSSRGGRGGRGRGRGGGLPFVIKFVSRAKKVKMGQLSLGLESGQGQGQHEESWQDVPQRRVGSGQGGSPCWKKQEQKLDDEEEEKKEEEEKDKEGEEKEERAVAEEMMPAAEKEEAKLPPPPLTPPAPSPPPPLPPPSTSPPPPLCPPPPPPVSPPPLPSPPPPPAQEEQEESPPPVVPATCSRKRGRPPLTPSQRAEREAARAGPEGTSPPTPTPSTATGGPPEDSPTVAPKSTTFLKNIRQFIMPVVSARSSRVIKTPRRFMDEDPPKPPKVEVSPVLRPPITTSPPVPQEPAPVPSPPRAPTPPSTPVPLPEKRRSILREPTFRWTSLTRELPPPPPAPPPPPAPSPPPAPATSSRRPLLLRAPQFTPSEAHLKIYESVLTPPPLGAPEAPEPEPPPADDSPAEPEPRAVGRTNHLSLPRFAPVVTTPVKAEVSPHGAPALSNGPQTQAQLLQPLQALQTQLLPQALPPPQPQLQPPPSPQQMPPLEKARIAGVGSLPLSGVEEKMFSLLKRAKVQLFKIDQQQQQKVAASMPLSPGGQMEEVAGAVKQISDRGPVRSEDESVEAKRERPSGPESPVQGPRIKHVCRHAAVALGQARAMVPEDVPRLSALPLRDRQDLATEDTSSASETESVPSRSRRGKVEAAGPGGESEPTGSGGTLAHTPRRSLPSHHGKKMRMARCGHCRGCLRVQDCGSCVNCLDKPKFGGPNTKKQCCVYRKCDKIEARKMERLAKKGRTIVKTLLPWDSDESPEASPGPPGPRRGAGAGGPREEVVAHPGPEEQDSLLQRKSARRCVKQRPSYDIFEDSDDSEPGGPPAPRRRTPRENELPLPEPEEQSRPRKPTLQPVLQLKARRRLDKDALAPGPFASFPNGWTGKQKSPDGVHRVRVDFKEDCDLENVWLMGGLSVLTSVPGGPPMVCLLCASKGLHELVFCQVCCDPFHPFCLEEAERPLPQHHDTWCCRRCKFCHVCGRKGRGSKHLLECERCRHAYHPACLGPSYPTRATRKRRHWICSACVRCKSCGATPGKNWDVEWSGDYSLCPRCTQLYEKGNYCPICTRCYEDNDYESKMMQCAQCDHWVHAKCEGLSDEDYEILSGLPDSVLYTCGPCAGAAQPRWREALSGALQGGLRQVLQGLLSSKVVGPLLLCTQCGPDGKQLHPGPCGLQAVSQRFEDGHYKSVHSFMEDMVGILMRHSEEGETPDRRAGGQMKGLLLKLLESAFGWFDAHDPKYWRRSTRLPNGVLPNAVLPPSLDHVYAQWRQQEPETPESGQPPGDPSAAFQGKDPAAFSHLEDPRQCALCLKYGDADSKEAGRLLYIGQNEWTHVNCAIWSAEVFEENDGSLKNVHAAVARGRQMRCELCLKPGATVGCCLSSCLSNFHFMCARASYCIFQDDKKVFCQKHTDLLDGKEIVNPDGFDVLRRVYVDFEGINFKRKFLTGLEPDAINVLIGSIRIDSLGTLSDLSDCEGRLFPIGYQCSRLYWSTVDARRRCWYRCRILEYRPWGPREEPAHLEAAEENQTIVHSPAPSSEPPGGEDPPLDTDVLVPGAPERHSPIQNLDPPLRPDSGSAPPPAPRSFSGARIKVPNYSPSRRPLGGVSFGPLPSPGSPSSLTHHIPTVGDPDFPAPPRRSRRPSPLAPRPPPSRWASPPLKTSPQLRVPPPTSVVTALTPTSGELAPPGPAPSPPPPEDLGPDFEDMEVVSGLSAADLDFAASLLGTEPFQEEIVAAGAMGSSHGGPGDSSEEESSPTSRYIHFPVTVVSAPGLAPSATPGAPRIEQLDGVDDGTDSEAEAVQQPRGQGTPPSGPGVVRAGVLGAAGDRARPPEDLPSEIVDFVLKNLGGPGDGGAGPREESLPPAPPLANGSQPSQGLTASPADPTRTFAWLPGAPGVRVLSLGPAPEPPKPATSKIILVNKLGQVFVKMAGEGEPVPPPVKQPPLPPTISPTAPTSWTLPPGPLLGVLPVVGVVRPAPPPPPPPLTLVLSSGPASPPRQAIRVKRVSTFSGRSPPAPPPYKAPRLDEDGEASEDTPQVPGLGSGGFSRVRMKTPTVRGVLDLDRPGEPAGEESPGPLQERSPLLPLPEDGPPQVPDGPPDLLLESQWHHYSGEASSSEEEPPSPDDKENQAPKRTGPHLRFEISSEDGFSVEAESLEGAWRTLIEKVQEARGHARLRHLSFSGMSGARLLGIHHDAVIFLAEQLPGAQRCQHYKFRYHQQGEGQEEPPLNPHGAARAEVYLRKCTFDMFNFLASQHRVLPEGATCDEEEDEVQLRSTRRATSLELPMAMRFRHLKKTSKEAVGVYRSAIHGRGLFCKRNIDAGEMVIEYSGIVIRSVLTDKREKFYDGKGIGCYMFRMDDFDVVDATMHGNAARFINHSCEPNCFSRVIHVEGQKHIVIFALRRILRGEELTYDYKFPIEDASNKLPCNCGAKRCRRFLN
Sequence of Histone-lysine N-methyltransferase EZH2 (Q15910 whole entry): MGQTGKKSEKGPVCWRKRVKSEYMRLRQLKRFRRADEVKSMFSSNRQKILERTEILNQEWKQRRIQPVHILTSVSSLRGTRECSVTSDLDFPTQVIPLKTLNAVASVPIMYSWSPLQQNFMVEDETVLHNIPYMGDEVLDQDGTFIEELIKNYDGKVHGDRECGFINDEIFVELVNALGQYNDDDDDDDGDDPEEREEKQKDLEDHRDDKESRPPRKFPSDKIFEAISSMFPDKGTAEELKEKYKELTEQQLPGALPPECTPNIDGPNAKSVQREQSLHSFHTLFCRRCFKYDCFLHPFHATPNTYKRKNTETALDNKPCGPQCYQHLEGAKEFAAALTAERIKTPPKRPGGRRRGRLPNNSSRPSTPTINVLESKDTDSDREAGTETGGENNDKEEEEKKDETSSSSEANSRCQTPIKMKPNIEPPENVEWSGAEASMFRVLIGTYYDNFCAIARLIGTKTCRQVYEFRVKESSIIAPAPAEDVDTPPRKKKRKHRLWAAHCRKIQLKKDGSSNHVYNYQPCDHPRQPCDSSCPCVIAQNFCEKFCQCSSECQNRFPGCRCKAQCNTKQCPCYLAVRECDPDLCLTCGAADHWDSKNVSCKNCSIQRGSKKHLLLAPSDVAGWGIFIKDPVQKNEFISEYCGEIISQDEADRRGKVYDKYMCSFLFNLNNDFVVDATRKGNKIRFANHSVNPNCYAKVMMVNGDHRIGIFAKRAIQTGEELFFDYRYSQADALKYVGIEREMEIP

In the case of `C[C@H](Oc1ccc(-c2cc3c(C4=CCNCC4)ncnc3[nH]2)cc1)c1ccccc1`, the IC50 [1] is reported as 3.25 µM, the half-life [2] is reported as 41.8 min and the IC50 [3] is reported as > 20 µM. For the same compound, the IC50 [4] was > 20 µM, the IC50 [5] was > 20 µM and the IC50 [6] was 0.047 µM. For the same compound, the IC50 [7] was > 20 µM, the Activity (A-375 [8]) was 5.58% and the Activity (A-375 [9]) was 14.14%. The Activity (A-375 [10]) was 66.39%, the Activity (A-375 [11]) was 95.9% and the half-life [12] was 9.25 min. The half-life [13] was 68.4 min, the CLH [14] was 227 mL/min/g and the CLH [15] was 30.7 mL/min/g. It also gave a fraction unbound [16] of 0.014, a fraction unbound [17] of 0.003 and an IC50 [18] of 0.0239 µM. It also gave a half-life [19] of 155 min, a Cmax [20] of 8.22 ng/mL and an AUC [21] of 173 h/ng/mL. It also gave an AUC [22] of 65.3 h/ng/mL, a clearance [23] of 310 mL/min/kg and a Vd [24] of 62.5 L/kg. The bioavailability [25] was 7.25%, the inhibition in vivo at 75 mg/kg (A-375 [26]) was 73% and the Activity [27] was “Non-Toxic”.
